Experimental data as given in ChEMBL document CHEMBL1136673, “Synthesis of low molecular weight compounds with complement inhibition activity” (Bioorg Med Chem Lett, 2003).

Key:
Assay type in all cases: functional, organism-based; call rule not given here
[1] = species on record: Ovis aries; experiment: The concentration required to inhibit complement mediated hemolysis of sensitized sheep RBC
[2] = species on record: Ovis aries; experiment: The concentration effective to cause 50% hemolysis with sensitized sheep erythrocytes in the absence of complement
[3] = species on record: Ovis aries; experiment: Concentration required to inhibit complement mediated hemolysis of sensitized sheep RBC
[4] = species on record: Ovis aries; experiment: The concentration required to inhibit complement mediated hemolysis of sensitized sheep RBC; not active
[5] = species on record: Ovis aries; experiment: Concentration effective to cause 50% hemolysis with sensitized sheep erythrocytes in the absence of complement

Structure (SMILES) | IC50 [1] [µM] | EC50 [2] [µM] | IC50 [3] [µM] | IC50 [4] | EC50 [5] [µM]
CCOc1cccc(-c2nn[nH]n2)c1 | 631 | 2210 | – | – | –
CC1(C)CC[C@]2(C(=O)O)CC[C@]3(C)C(=CC[C@@H]4[C@@]5(C)CC[C@H](O)C(C)(C)[C@@H]5CC[C@]43C)[C@@H]2C1 [OLEANOLIC_ACID] | 76.6 | – | – | – | –
COc1cccc(C=O)c1 | – | > 4410 | 919 | – | –
O=Cc1cccc(Oc2ccccc2)c1 | 1390 | > 3.3 | – | – | –
COc1cccc(-c2nn[nH]n2)c1 | 1560 | > 3410 | – | – | –
COc1cccc(C(=O)O)c1 | – | 2960 | – | Not Active | –
c1ccc(Oc2cccc(-c3nn[nH]n3)c2)cc1 | 798 | 954 | – | – | –
O=C(O)c1cccc(Oc2ccccc2)c1 [M-PHENOXYBENZOIC ACID FOR CIS-ISOMER] | 1400 | > 2800 | – | – | –
C[C@H]1[C@H](C)CC[C@]2(C(=O)O)CC[C@]3(C)C(=CC[C@@H]4[C@@]5(C)CC[C@H](O)C(C)(C)[C@@H]5CC[C@]43C)[C@H]12 [URSOLIC ACID] | 54.7 | – | – | – | –
CCOc1cccc(C=O)c1 | 1000 | – | – | – | > 4000
CCOc1cccc(C(=O)O)c1 | – | 2530 | – | Not Active | –
